{"source": "patent US6703380B2", "about": "“Prevention of cancer” (Colotech A/S, priority 1999, dated 2004)", "key": {"[1]": {"tested_on": "solid, human xenografts", "conditions": "in vivo (mice); cited from earlier work"}, "[2]": {"tested_on": "human colon cancer cell lines (LoVo)", "conditions": "in vitro, including CEA-producing cell lines; cited from earlier work"}, "[3]": {"tested_on": "aberrant crypt foci (ACF) of the colon/rectum in AOM-induced rats", "experiment": "ACF of the colon/rectum in AOM-induced rats, Example 2", "type": "in vivo, rat", "method": "The in vivo study of the effect on prevention of CRC in AOM (Azoxymethane) induced rats The rats are induced s.c 1× week in 2 weeks with an AOM solution. The effect of the specific treatment is evaluated due to the number of aberrant crypt foci (ACF) of the colon/rectum in the AOM-induced rats. The aberrant crypt score is evaluated by stereomicroscopy (40×) upon staining with Giemsa-solution (6 ml conc. Giemsa in 50 ml of PBS, pH 7.1). The crypt size is categorised as small, medium, large and X-large. The number of animals is 80 with 16 in each group. The medicaments are administered with the food. The section is 18 weeks from the first dosage. […] Data for weight, food and water are registered and analysed “Small” in the third column is the sum of small and medium of the first column “Large” in the third column is the sum of large and x-large the of second column"}, "[4]": {"tested_on": "stroke, acute myocardial infarction and/or cardiovascular death", "conditions": "low-dose; cited from earlier work"}, "[5]": {"conditions": "following 3 months of therapy; cited from earlier work"}, "[6]": {"conditions": "count per animal, listed as Asp 200"}}, "note": "Several values for one entry are separate records, joined by “and”; a condition that tells them apart may be missing. Equal values may be shown once."}
{"smiles": "C=C1/C(=C\\C=C2/CCC[C@]3(C)[C@@H]([C@H](C)CCCC(C)(C)O)CC[C@@H]23)C[C@@H](O)C[C@@H]1O", "note": "[1,25DHC, 1,25 dihydroxycholecalciferol]", "values": [{"measurement": "Growth of solid, human xenografts", "setting": "[1]", "value": "suppress growth"}, {"measurement": "Growth of human colon cancer cell lines", "setting": "[2]", "value": "inhibits the growth"}]}
{"smiles": "CC(=O)Oc1ccccc1C(=O)O", "note": "[ASA, acetylsalicylic acid]", "values": [{"measurement": "Effect on (large) ACF, in words", "setting": "[3]; aspirin 200 ppm without or with Ca and 1,25 DHC", "value": "without effect"}, {"measurement": "Small ACF, individual rat", "setting": "[3]; count per animal, section 18 weeks from first dosage, listed as Asp 200", "value": "92 and 87 and 20 and 51 and 31 and 82 and 73 (2×) and 44 (2×) and 55 and 47 and 40 and 22 and 46 and 63"}, {"measurement": "Large (sum of large and x-large) ACF, individual rat", "setting": "[3]; [6]", "value": "15 and 9 and 2 (3×) and 8 and 5 (2×) and 3 (3×) and 6 and 1 (2×) and 7 and 4"}, {"measurement": "Large ACF, individual rat", "setting": "[3]; [6]", "value": "13 and 8 and 2 (3×) and 5 (4×) and 3 (3×) and 1 (2×) and 6 and 4"}, {"measurement": "Medium ACF, individual rat", "setting": "[3]; [6]", "value": "74 and 45 and 8 and 34 and 10 and 51 and 35 and 31 and 22 and 49 and 21 and 9 and 26 and 47 and 18 and 50"}, {"measurement": "Small (sum of small and medium) ACF, individual rat", "setting": "[3]; [6]", "value": "166 and 132 and 28 and 85 and 41 and 133 and 108 and 75 and 77 and 96 and 61 and 31 and 72 and 120 and 62 and 113"}, {"measurement": "Total ACF, individual rat", "setting": "[3]; [6]", "value": "181 and 141 and 30 and 93 and 43 and 138 and 111 and 78 and 80 and 102 and 62 and 33 and 79 and 125 and 66 and 114"}, {"measurement": "X-Large ACF, individual rat", "setting": "[3]; [6]", "value": "2 and 1 (3×) and 0 (11×) and 3"}, {"measurement": "Large (sum of large and x-large) ACF, Mean", "setting": "[3]; group mean", "value": 4.75}, {"measurement": "Large ACF, Mean", "setting": "[3]; group mean", "value": 4.25}, {"measurement": "Medium ACF, Mean", "setting": "[3]; group mean", "value": 33.13}, {"measurement": "Small (sum of small and medium) ACF, Mean", "setting": "[3]; group mean", "value": 87.50}, {"measurement": "Small ACF, Mean", "setting": "[3]; group mean", "value": 54.38}, {"measurement": "Total ACF, Mean", "setting": "[3]; group mean", "value": 92.25}, {"measurement": "X-Large ACF, Mean", "setting": "[3]; group mean", "value": 0.50}, {"measurement": "Relative risk-reduction in relation to stroke, acute myocardial infarction and/or cardiovascular death", "setting": "[4]", "value": "approx. 25%"}]}
{"smiles": "O=C(O)c1cc(/N=N/c2ccc(S(=O)(=O)Nc3ccccn3)cc2)ccc1O", "note": "[sulphasalazine]", "values": [{"measurement": "Relative risk reduction", "setting": "[5]", "value": "0.38 (0.2 to 0.7)"}]}
